Test results taken from PubChem BioAssay AID623930 (Southern Research Specialized Biocontainment Screening …, 2012).
Active and inactive are the calls of the source.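 Rule for the calls: active = viability below 70% at one or more concentrations in every replicate; inactive = viability above 70% at all doses, or replicates disagree.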

system: not listed separately; experiment: viability of Vero E6 cells – cell-based, synthesized analogs, extended characterization 2, cytotoxicity control for West Nile virus antiviral project, SAR follow-up (AID 623930); conditions: Vero E6 viability, CellTiter-Glo luminescence, 96 h; at 100 µM (top of the series)

**Q.** With O=C(CSc1nc2ccccc2c(=O)n1-c1ccc(Cl)c(Cl)c1)Nc1ccc2c(c1)CCC2 as the molecule, how does the viability read?
**A.** 75.2% (inactive)

**Q.** Which viability does the source give for N#Cc1ccc(-n2c(SCC(=O)Nc3nc(-c4ccccc4)cs3)nc3ccccc3c2=O)cc1F here?
**A.** 78.4% (inactive)

**Q.** With O=C(CSc1nc2c(F)cccc2c(=O)n1-c1ccc(Cl)c(Cl)c1)Nc1nc(-c2ccccc2)cs1 as the molecule, how does the viability read?
**A.** 73.3% (inactive)

**Q.** Which viability does the source give for O=C(CSc1nc2cccc(F)c2c(=O)n1-c1ccc(Cl)c(Cl)c1)Nc1ccc2c(c1)CCC2 here?
**A.** 71.9% (inactive)

**Q.** With O=C(CSc1nc2ccccc2c(=O)n1-c1c(Cl)cccc1Cl)Nc1ccc2c(c1)CCC2 as the molecule, how does the viability read?
**A.** 74.6% (inactive)

**Q.** With O=C(CSc1nc2c(F)cccc2c(=O)n1-c1cc(Cl)cc(Cl)c1)Nc1nc(-c2ccccc2)cs1 as the molecule, how does the viability read?
**A.** 76% (inactive)

**Q.** With O=C(CSc1nc2ccccc2c(=O)n1-c1ccc(Cl)c(F)c1)c1nc(-c2ccccc2)cs1 as the molecule, how does the viability read?
**A.** 72% (inactive)

system: Vero E6 viability, CellTiter-Glo luminescence, 96 h; experiment: as above; conditions: not given

**Q.** For O=C(CSc1nc2c(F)cccc2c(=O)n1-c1cc(Cl)cc(Cl)c1)Nc1ccc2c(c1)CCC2, which CC50 is on record?
**A.** 77 µM

**Q.** Which CC50 does the source give for O=C(CSc1nc2ccccc2c(=O)n1-c1c(Cl)cccc1Cl)Nc1nc(-c2ccccc2)cs1 here?
**A.** 52.6 µM

**Q.** With O=C(CSc1nc2ccccc2c(=O)n1-c1cc(F)cc(F)c1)Nc1nc(-c2ccccc2)cs1 as the molecule, how does the CC50 read?
**A.** 82.9 µM

**Q.** With O=C(CSc1nc2c(Cl)cccc2c(=O)n1-c1cc(Cl)cc(Cl)c1)Nc1ccc2c(c1)CCC2 as the molecule, how does the CC50 read?
**A.** 72.2 µM

**Q.** Which CC50 does the source give for Cc1cc(-n2c(SCC(=O)Nc3nc(-c4ccccc4)cs3)nc3ccccc3c2=O)ccc1F here?
**A.** 87.8 µM

**Q.** For O=C(CSc1nc2c(F)cccc2c(=O)n1-c1ccc(Cl)c(Cl)c1)Nc1ccc2c(c1)CCC2, which CC50 is on record?
**A.** 34.5 µM
